Measurements from US11179306B2, “Use of salicylic acid derivatives as prodesquamating active agent” (L'OREAL, priority 2013, dated 2021).

Legend:
[1] = system: epidermis of viable human skin; test: Tolerance of the skin: morphology of the epidermis of treated excised human skin; assay type: cell-based; details: 5% by weight in ethanol, compared with control skin
Experimental: (§1) The protocol consists in applying the test solutions to skin samples maintained under survival conditions. The products tested are applied in a proportion of 15 μl per 1 cm^2 sample and are not rinsed off. Application is carried out twice, at D0 and then, 24 hours later, at D1. The morphology of the stratum corneum is analysed 48 hours after the first application, at D2, on a biopsy.
In order to validate the desquamating properties of the compounds A and B and to evaluate the tolerance of the skin to these treatments, the morphology of a control skin was in addition compared with the morphology of the skin samples treated with A and with B present in a content of 5% by weight in ethanol, according to the protocol described above.

[2] = system: stratum corneum of viable human skin; test: Desquamating activity: cohesion of the stratum corneum on excised human skin maintained under survival conditions; assay type: cell-based; details: for Score (mean ± sd, n = 6), decrease in the cohesion of the stratum corneum / Appearance of the stratum corneum compared with control skin: 5% by weight in ethanol; for Score (mean ± sd, n = 6), decrease in the cohesion of the stratum corneum: 15 μl per 1 cm^2, applied at D0 and D1, histology at D2, score 0 (absence of modification) to 4 (very large decrease with exfoliation), 6 donors; for Appearance of the stratum corneum compared with control skin: morphology comparison; for Decrease in the cohesion of the stratum corneum with respect to the control skin (desquamating effect): at 5%, paired Student test, p<0.05
Experimental: The study is targeted at detecting the desquamating potential of the active agents in simplex solution by observation of the cohesion of the stratum corneum.
The keratolytic effect on excised skin maintained under survival conditions at 5% by weight in ethanol was evaluated. The study was carried out on viable human skin resulting from abdominal or breast reduction plastic surgery (6 donors).
as §1
The solutions applied are the following: • compound A of Example 1, at 5% by weight in ethanol, and • compound B of Example 2, at 5% by weight in ethanol.
By way of comparison, no solution is applied to some samples, referred to as controls.
The histological analysis of the horny layer is carried out on a skin section after staining with hemalaun-eosin (magnification 400).
6 samples were used for each of the tests (control, compound A and compound B). A paired Student test (p<0.05) was carried out in order to evaluate the significance of the difference with respect to the control.

O=C(O)CCCCCCCc1cccc(O)c1C(=O)O [Compound B]
Morphology of the epidermis (tolerance of the skin) [1]: preservation of the morphology of the epidermis | Score (mean ± sd, n = 6), decrease in the cohesion of the stratum corneum [2]: 1.75 ± 0.2 | Appearance of the stratum corneum compared with control skin [2]: decrease in the cohesion of the stratum corneum | Decrease in the cohesion of the stratum corneum with respect to the control skin (desquamating effect) [2]: statistically significant

O=C(O)c1c(O)cccc1CCCCCCCCO [Compound A]
Morphology of the epidermis (tolerance of the skin) [1]: preservation of the morphology of the epidermis | Score (mean ± sd, n = 6), decrease in the cohesion of the stratum corneum [2]: 1.85 ± 0.4 | Appearance of the stratum corneum compared with control skin [2]: decrease in the cohesion of the stratum corneum | Decrease in the cohesion of the stratum corneum with respect to the control skin (desquamating effect) [2]: statistically significant
